Values quoted from earlier work, collected in US20210361582A1, “COLCHICINE SALICYLATE DERIVATIVES AND METHODS OF TREATMENT” (Murray and Poole Enterprises, LTD., priority 2015, published 2021).

Assays:
[1] = in vivo
[2] = colchicine 0.5 mg/day in addition to statins and other standard secondary prevention therapies; 532 patients; median 3 years
[3] = at 18 months; 84 patients; aspirin alone vs plus colchicine 1.0-2.0 mg first day then 0.5-1.0 mg/d for 6 months
[4] = at 18 months; 120 patients; conventional treatment with aspirin vs plus colchicine 1.0 to 2.0 mg first day then 0.5 to 1.0 mg/day for 3 months; p=0.004

## COc1cc2c(c(OC)c1OC)-c1ccc(OC)c(=O)cc1[C@@H](NC(C)=O)CC2 [colchicine, N[5,6,7,9-tetrahydro-1,2,3,10-tetratmethoxy 9-oxobenzo[a]heptalen-7-yl],(S)-acetamide]
[1]; human
  bioavailability, inter patient variations: 20-80%
[1]
  bioavailability: ca. 45%
  second peak (resorption from colon), share of totally absorbed colchicine: about 50%
[2]
  prevention of cardiovascular events: appeared effective
[3]
  recurrence rate (actuarial rates): 24.0%
[4]
  recurrence rate (primary end point): 10.7%

## CC(=O)Oc1ccccc1C(=O)O [aspirin]
[3]
  recurrence rate (actuarial rates): 50.6%
[4]
  recurrence rate (primary end point): 32.3%
